Results on eleven compounds are retold here after ChEMBL document CHEMBL3997771 (Eur J Med Chem, 2017).

Experiment [1] relates to A549. The experiment in a line: Cytotoxicity against human A549 cells assessed as growth inhibition after 72 hrs by MTT assay. The class given is functional, cell-based. Particulars: A549, 72 h.
Experiment [2] concerns A549. Briefly: Induction of microtubule depolymerization in human A549 cells at 100 nM after 4 hrs by immunofluorescence microscopic method. The class given is cell-based.
For experiment [3], the system named is A549. Briefly: Cell cycle arrest in human A549 cells assessed as accumulation at G2/M phase at IC50 after 24 hrs by propidium iodide staining-based flow cytometric method. The class given is functional.
The test system of the next experiment is HT-29. The experiment in a line: Cytotoxicity against human HT-29 cells assessed as growth inhibition after 72 hrs by MTT assay. The class given is functional, cell-based. Particulars: HT-29, 72 h.
For experiment [4], the species on record is Ovis aries. Briefly: Induction of abnormal lamb brain tubulin polymer formation at 10 uM after 10 mins by turbidimetry.
Experiment [5] is described as follows: Selectivity index, ratio of IC50 for HEK293 cells to IC50 for human MCF7 cells. The class given is functional.
The nature of experiment [6]: Selectivity index, ratio of IC50 for HEK293 cells to IC50 for human A549 cells. Type of experiment: functional.
The nature of experiment [7]: Inhibition of lamb brain tubulin self assembly assessed as decrease in microtubule formation after 10 mins by turbidimetry/spectrometry. Details: species or system Ovis aries.
The species entered for experiment [8] is Ovis aries. The experiment in a line: Induction of abnormal lamb brain tubulin polymer formation at 50 uM after 10 mins by turbidimetry.
The next experiment concerns HEK293. The experiment in a line: Cytotoxicity against HEK293 cells assessed as growth inhibition after 72 hrs by MTT assay. The class given is cell-based. Particulars: Homo sapiens, HEK293, 72 h.
Another experiment deals with MCF7. The experiment in a line: Cytotoxicity against human MCF7 cells assessed as growth inhibition after 72 hrs by MTT assay. Type of experiment: functional, cell-based. The note with it: MCF7, 72 h.
Experiment [9] is filed under the species Ovis aries. Briefly: Binding affinity to lamb brain tubulin after 15 mins by fluorimetric titration method.
Experiment [10] in a line: Selectivity index, ratio of IC50 for HEK293 cells to IC50 for human HT-29 cells. The class given is functional.
The species named for experiment [11] is Ovis aries. Briefly: Inhibition of lamb brain tubulin self assembly assessed as decrease in microtubule formation at 10 uM after 10 mins by turbidimetry/spectrometry.
For experiment [12], the species on record is Ovis aries. Briefly: Induction of abnormal lamb brain tubulin polymer formation at 50 uM by uranyl acetate staining-based transmission electron microscopy.
The species named for experiment [13] is Ovis aries. Briefly: Binding affinity to lamb brain tubulin at 10 uM by fluorimetric titration method.
For experiment [14], the species on record is Ovis aries. The experiment in a line: Inhibition of lamb brain tubulin self assembly assessed as decrease in microtubule formation at 0.1 uM by uranyl acetate staining-based transmission electron microscopy.
For experiment [15], the species on record is Ovis aries. The experiment in a line: Binding affinity to lamb brain tubulin-colchicine complex at 20 uM by fluorimetric titration method.

Calls of active or inactive are those of the source. The rule behind the calls is not given here.

As for `COc1cc2c(c(OC)c1OC)-c1ccc(OC)c(=O)cc1[C@@H](NC(C)=O)CC2` [COLCHICINE], the half-maximal inhibitory concentration (IC50) with A549 [1] was determined as 14 nM. In the experiment with A549 [2], the outcome was Active. Besides, the Activity in the experiment with A549 [3] was 8%.
On to `CCCCCCCCCCC(=O)N[C@H]1CCc2cc(OC)c(OC)c(OC)c2-c2ccc(OC)c(=O)cc21`, for which the IC50 came out at 62 nM with A549 [1]; 0.041 nM in the experiment with HT-29; 790 nM in experiment [7]; 0.17 nM in the experiment on HEK293; 1.77 nM with MCF7. The result in the experiment listed under Ovis aries [4] and in the experiment listed under Ovis aries [8] was Active. Also, the entries for the “Ratio IC50” value in experiment [5], in [6] and in experiment [10] were 0.1, less than 0.1 and 4.2, respectively. The compound also gave a Kapp in the experiment listed under Ovis aries [9] of 18.4 ×10⁴ /M. Moreover, the Activity in the experiment with A549 [3] is on record as 41%.
`CCCCCCCCCCCCC(=O)N[C@H]1CCc2cc(OC)c(OC)c(OC)c2-c2ccc(OC)c(=O)cc21`: the IC50 with HT-29 came out at 7 nM; with HEK293, 1.5 nM; with MCF7, 6.8 nM. For the same compound, the “Ratio IC50” value in experiment [5] and in experiment [10] was 0.2 throughout.
In the case of `CCCCCCCCCCCCCCCC(=O)N[C@H]1CCc2cc(OC)c(OC)c(OC)c2-c2ccc(OC)c(=O)cc21`, the results for the IC50 in the experiment with HT-29, in the experiment on HEK293 and in the experiment with MCF7 were 184 nM, 244 nM and 720 nM, respectively. For the same compound, the “Ratio IC50” value was 0.3 in experiment [5] and 1.3 in [10].
For `CCCCCC(=O)N[C@H]1CCc2cc(OC)c(OC)c(OC)c2-c2ccc(OC)c(=O)cc21`, the IC50 in the experiment with A549 [1] was 18 nM; in the experiment on HT-29, 3.37 nM; in experiment [7], 2060 nM; in the experiment on HEK293, 7.1 nM; in the experiment on MCF7 it was 7.02 nM. Also, the outcome in the experiment with A549 [2] and in the experiment filed under Ovis aries [8] was Active. For the same compound, the results for the “Ratio IC50” value in experiment [5], in experiment [6] and in [10] were 1, 0.39 and 2.1, respectively. The inhibition result in the experiment filed under Ovis aries [11] was “Active”. For the same compound, the Kapp in the experiment listed under Ovis aries [9] was 6.4 ×10⁴ /M.
As for `CCCCCCCC(=O)N[C@H]1CCc2cc(OC)c(OC)c(OC)c2-c2ccc(OC)c(=O)cc21`, the IC50 with A549 [1] worked out at 133 nM; with HT-29, 1.69 nM; in experiment [7] it was 1080 nM; in the experiment with HEK293, 18.9 nM; in the experiment with MCF7, 23 nM. For the same compound, the outcome in the experiment filed under Ovis aries [12] and in the experiment listed under Ovis aries [8] was Active. Besides, the “Ratio IC50” value in experiment [5] stood at 0.8; in experiment [6] it was 0.14; in [10], 11.2. Further, the inhibition in the experiment listed under Ovis aries [11] amounted to 80%. The same compound registered a Kapp in the experiment listed under Ovis aries [9] of 5.2 ×10⁴ /M.
Regarding `CCCCCCCCCCCC(=O)N[C@H]1CCc2cc(OC)c(OC)c(OC)c2-c2ccc(OC)c(=O)cc21`, the IC50 with A549 [1] came out at 71.9 nM; in the experiment with HT-29, 0.27 nM; in experiment [7], 1210 nM; with HEK293, 0.23 nM; in the experiment on MCF7, 0.53 nM. The outcome in the experiment listed under Ovis aries [12], in the experiment filed under Ovis aries [4] and in the experiment filed under Ovis aries [8] was Active. Besides, the “Ratio IC50” value in [5] is 0.4; in [6], less than 0.1; in experiment [10], 0.9. Further, in the experiment listed under Ovis aries [9], the Kapp is 19 ×10⁴ /M.
As to `CCCCCCCCCCCCCCCCCC(=O)N[C@H]1CCc2cc(OC)c(OC)c(OC)c2-c2ccc(OC)c(=O)cc21`, the IC50 stood at 1010 nM with HT-29, 766 nM in the experiment with HEK293 and 120 nM in the experiment on MCF7. The “Ratio IC50” value is listed as 6.4 in experiment [5] and 0.8 in [10].
For the compound `CCCC(=O)N[C@H]1CCc2cc(OC)c(OC)c(OC)c2-c2ccc(OC)c(=O)cc21`, the IC50 with HT-29 is 10 nM; with HEK293, 13.5 nM; in the experiment on MCF7 it was 13 nM. In addition, the “Ratio IC50” value came to 1 in experiment [5] and 1.4 in [10].
In the same order, the values of `CCCCCCCCCCCCCC(=O)N[C@H]1CCc2cc(OC)c(OC)c(OC)c2-c2ccc(OC)c(=O)cc21` are 36 nM, 46 nM, 20 nM, 2.3 and 1.3.
Consider `CCCCCCCCCC(=O)N[C@H]1CCc2cc(OC)c(OC)c(OC)c2-c2ccc(OC)c(=O)cc21`, for which the IC50 with A549 [1] came to 25 nM; in the experiment with HT-29, 0.143 nM; in experiment [7] it was 700 nM; in the experiment on HEK293 it was 0.242 nM; in the experiment with MCF7, 29 nM. In addition, the outcome in the experiment on A549 [2], in the experiment listed under Ovis aries [4], in the experiment listed under Ovis aries [13] and in the experiment listed under Ovis aries [8] was Active. For the same compound, the “Ratio IC50” value in experiment [5] is on record as less than 0.1; in experiment [6], less than 0.1; in experiment [10], 1.7. Also, in the experiment filed under Ovis aries [14], the inhibition result is “Active”. Moreover, the result in the experiment filed under Ovis aries [15] was inactive. For the same compound, the Kapp in the experiment filed under Ovis aries [9] amounted to 17.9 ×10⁴ /M.
